Key:
NCI-H69 [1] = experiment: Inhibitory activity against drug resistant H69/LX4 line overexpressing P-glycoprotein; format: functional, cell-based; settings: Homo sapiens
NCI-H69 [2] = experiment: Inhibitory activity against parental human small cell lung carcinoma cell line (H69P); format: functional, cell-based
P388 = experiment: Inhibitory activity against murine P388 leukemia (P388) cells.; format: functional, cell-based; settings: Mus musculus
[3] = system: Lewis lung carcinoma cell line; experiment: Inhibitory concentration to reduce cell number to 50% in a panel of cultured, murine Lewis lung carcinoma (LL) cells.; format: functional, cell-based; settings: Mus musculus
[4] = Ratio of IC50 in the cell -amsacrine-resistant Jurkat (JL A) / JL C; format: functional
[5] = Ratio of IC50 in the cell -doxorubicin-resistant Jurkat (JL D) / JL C; format: functional
[6] = Inhibitory concentration to reduce cell number to 50% in a panel of cultured, wild type human Jurkat leukemia (JL C) cells.; format: functional, cell-based
P388 (Mus musculus) = experiment: Inhibitory concentration to reduce cell number to 50% in a panel of cultured, murine P388 leukemia (P388) cells.

Row | SMILES | IC50 (NCI-H69 [1]; read-out: IC50) [nM] | IC50 (P388) [nM] | IC50 [3] [nM] | IC50 [6] [nM] | IC50 (P388 (Mus musculus)) [nM] | IC50 (NCI-H69 [1]) [nM] | IC50 (NCI-H69 [2]) [nM] | Ratio [4] | Ratio [5]
1 | COc1ccnc2c1ccc1nc3cccc(C(=O)NCCN(C)C)c3nc12 | 3.2 | – | – | – | – | – | 123 | – | –
2 | CN(C)CCNC(=O)c1cccc2nc3ccc4[nH]ncc4c3nc12 | 4.5 | 6.8 | 4.1 | 21 | – | – | 107 | 4.2 | 4.7
3 | CN(C)CCNC(=O)c1cccc2nc3ccc4c(O)ccnc4c3nc12 | > 4 | 2700 | – | – | – | – | 2100 | – | –
4 | COc1cccc2c1ccc1nc3cccc(C(=O)NCCN(C)C)c3nc12 | 1.4 | 9.4 | – | – | – | – | 35 | – | –
5 | COc1nccc2c1ccc1nc3cccc(C(=O)NCCN(C)C)c3nc12 | 1.2 | 14 | 2.4 | 17 | – | – | 21 | 0.7 | 0.7
6 | CN(C)CCNC(=O)c1cccc2nc3ccccc3nc12 | – | 1100 | 1850 | 2500 | – | – | – | 0.8 | 1
7 | CN(C)CCNC(=O)c1cccc2nc3ccc4nccnc4c3nc12 | 1.5 | 85 | 54 | 165 | – | – | 234 | 1 | 0.9
8 | CN(C)CCNC(=O)c1cccc2nc3ccc4[nH]cnc4c3nc12 | 5.2 | 300 | 41 | 159 | – | – | 183 | 0.8 | 0.9
9 | CN(C)CCNC(=O)c1cccc2nc3ccc4c[nH]nc4c3nc12 | 0.95 | 98 | 66 | 194 | – | – | 524 | 1.1 | –
10 | COc1nccc2c1ccc1nc3cccc(C(=O)N[C@H](C)CN(C)C)c3nc12 | 1.2 | – | – | – | – | – | 24 | – | –

Now from value to compound, other results behind:

Row | IC50 (NCI-H69 [1]; read-out: IC50) [nM] | IC50 (P388) [nM] | IC50 [3] [nM] | IC50 [6] [nM] | IC50 (P388 (Mus musculus)) [nM] | IC50 (NCI-H69 [1]) [nM] | SMILES | IC50 (NCI-H69 [2]) [nM] | Ratio [4] | Ratio [5]
11 | 1.05 | 31 | – | – | – | – | CN(C)CCNC(=O)c1cccc2nc3ccc4c(O)nccc4c3nc12 | 133 | – | –
12 | 1.2 | – | – | – | – | – | COc1nccc2c1ccc1nc3cccc(C(=O)N[C@H](CO)CN(C)C)c3nc12 | 24 | – | –
13 | 1.2 | 42 | 20 | 74 | – | – | CN(C)CCNC(=O)c1cccc2nc3ccc4ncccc4c3nc12 | 124 | 0.8 | 0.7
14 | 1.7 | 220 | – | – | – | – | CN(C)CCNC(=O)c1cccc2nc3ccc4c(ccn4C)c3nc12 | 183 | – | –
15 | 0.92 | 8.4 | 5.9 | 44 | – | – | CN(C)CCNC(=O)c1cccc2nc3ccc4cnn(C)c4c3nc12 | 109 | 1 | 1.1
16 | 1.2 | – | 25 | 98 | 59 | – | CN(C)CCNC(=O)c1cccc2nc3ccc4c(cnn4C)c3nc12 | 130 | 0.8 | 0.8
17 | 0.64 | 5.6 | 6.4 | 28 | – | – | CN(C)CCNC(=O)c1cccc2nc3ccc4cnccc4c3nc12 | 88 | 3 | 2.8
18 | 1.3 | 16 | 11 | 79 | – | – | CN(C)CCNC(=O)c1cccc2nc3ccc4ccncc4c3nc12 | 116 | 0.8 | 1
19 | 1.2 | 10 | – | – | – | – | COc1cccc2c1ccc1nc3cccc(C(=O)N[C@H](C)CN(C)C)c3nc12 | 23 | – | –
20 | 1.9 | 37 | 23 | 93 | – | – | CN(C)CCNC(=O)c1cccc2nc3ccc4ccccc4c3nc12 | 67 | 0.8 | 0.9
21 | – | – | – | 9.6 | – | 137 | COc1cccc2c1C(=O)c1c(O)c3c(c(O)c1C2=O)C[C@@](O)(C(=O)CO)C[C@@H]3O[C@H]1C[C@H](N)[C@H](O)[C@H](C)O1 [DOXORUBICIN] | – | – | –
22 | 2.1 | – | 89 | 317 | – | – | CN(C)CCNC(=O)c1cccc2nc3ccc4cccnc4c3nc12 | 294 | 0.7 | 0.9

Source: ChEMBL document CHEMBL1135712, “Structure-activity relationships for pyrido-, imidazo-, pyrazolo-, pyrazino-, and pyrrolophenazinecarboxamides as topoisomerase-targeted anticancer agents” (J Med Chem, 2002)
